Source: patent US9809521B2, “Cannabidinoid derivatives” (priority 2011, dated 2017)
Where two headings read alike, the source gives them in different places.

Experiments:
[1] = system: MDA-MB231 cells; experiment: MTT cell proliferation/viability assay; conditions: for reversal of inhibition of cell viability by CB2 receptor antagonist SR14458: 2 days; for IC50: Homo sapiens
Source text: (§1) The structure of O-1442 and O-1663 are almost identical with the exception of one R group. A smaller subset of the same analogs, including O-1442 and O-1663, were further screened for their ability to inhibit 4T1 breast cancer cell viability in anticipation of running in vivo experiments in immune competent mice (TABLE 5).
To directly test whether the O-1663 CBD analog could co-target two distinct cannabinoid antitumor pathways, the effects of CBD and the O-1663 CBD analog on cell viability with multiple antagonists were probed (FIG. 25). […] The ability of the O-1663 CBD analog and CBD to inhibit invasion was next compared (FIG. 25, panel C).

[2] = system: Id-1; experiment: Quantitative Western analysis of Id-1 protein expression in MDA-MB231 cells; type: cell-based, human; conditions: for Id-1 expression: 1 μM, both MDA-MB231 and 4T1 cells
Experimental: Quantitative Western analysis of Id-1 Expression in MDA-MB231 cells with CBD, Δ^9-THC, or WIN 55,212-2. The ability of CBD to regulate the expression of key genes that control breast cancer cell aggressiveness and invasiveness was determined.
SAR Analysis of Id-1 expression in MDA-MB231 cells with (Abn)-CBD receptor, Abn-CBD, O-1602, CP55,940, THC, CBN, or CBD. In order to determine the structure activity relationship (“SAR”) between cannabinoids and the inhibition of Id-1, MDA-MB231 cells were treated for two days with multiple cannabinoid compounds and Id-1 protein levels were assessed.
Quantitative Western analysis of Id-1 expression in MDA-MB231 cells and U251 cells with CBD or O-1663 CBD analog. […] MDA-MB231 breast cancer cells and U251 GBM cells were treated with 1.0 μM of cannabinoid for two days and then analyzed for Id-1 protein expression by quantitative Western analysis.

[3] = system: 4T1 cells; experiment: 4T1 i.v. mouse model of breast cancer metastasis, treatment from one day after injection; type: in vivo; conditions: for total amount of metastatic foci: 1 mg/kg i.p., 2 days after injection; for effect of CB2 receptor antagonist SR14458 on anti-metastatic activity: 14 days
Experimental: In-vivo model of breast cancer metastases: 4T1 cells were injected directly into the tail vein of syngeneic BALB/c mice. […] Two days after i.v. injection of 4T1 cells, the tumor bearing mice were injected i.p. once a day with vehicle or compound (1 mg/kg).
The 4T1 intravenous (i.v.) mouse model of breast cancer metastasis to assess the activity of CBD in vivo was utilized. […] One day after i.v. injection of the breast cancer cells, mice were treated daily for two weeks by intra-peritoneal injection with vehicle (used as a control) or CBD at a dose range of 0.1 to 5 mg/kg.
A survival study was carried out (FIG. 4, panel C).
To provide further support for this hypothesis in vivo, mice bearing 4T1 tumors were treated with CBD and the O-1663 CBD analog in the presence of a CB2 receptor antagonist (FIG. 27, panels D and E). […] In addition, a combination treatment with CBD and THC was included.
In-vivo studies of breast cancer metastases with CBD or O-1663 CBD analog. 4T1 cells were injected into the tail vein of syngeneic BALB/c mice and then were intraperitoneal injected 2 days later with either vehicle, CBD (1 mg/kg), or O-1663 CBD analog (1 mg/kg).

[4] = system: 4T1 cells; experiment: 4T1 i.v. mouse model, advanced stage metastasis, treatment from day seven; type: in vivo; conditions: for medium increase in survival: 0.5 or 1 mg/kg daily from seven days after injection
Experimental: To determine whether CBD could inhibit the formation of lung tumor foci in more advanced stages of metastasis, mice were treated at a time point where visual lung metastatic foci were already formed (as shown at day seven in FIG. 7, panel A). Mice were injected i.v. with 4T1 cells were kept for one week in order to allow for the formation of visible lung metastatic foci. The mice were then treated with CBD.
In-vivo late stage metastatic studies using a Xenograph mouse model for human breast cancer with CBD. […] Lung metastases were generated in BALB/c mice after tail vein injection of 20×10^5 mouse 4T1 cells. […] One week after the tail vein injection of 20×10^5 mouse 4T1 cells, the tumor bearing mice were injected i.p. once a day with vehicle or 1 mg/kg and 10 mg/kg CBD for seven days. Visible lung metastases were counted and measured by using a dissecting microscope.
The activity of CBD and the O-1663 CBD analog to inhibit the formation of lung tumor foci in more advanced stages of metastasis was then compared. Mice were treated at a time point where visual lung metastatic foci were already formed. Mice were injected i.v. with 4T1 cells and kept for one week in order to allow for the formation of visible lung metastatic foci. The mice were then treated with CBD and the O-1663 CBD analog. […] A survival study was then carried out where the activity of CBD to O-1663 CBD analog was compared (FIG. 28, panel C).
In-vivo advanced stage metastasis survivability studies in a mouse model with CBD or O-1663 CBD analog. To determine whether cannabinoids could inhibit the formation of lung tumor foci in more advanced stages of metastasis, we treated mice at a time point where visual lung metastatic foci were already formed (FIG. 30, panel A). Mice injected tail vein with 4T1 cell were kept for one week in order to allow for the formation of visual lung metastatic foci measuring up to 1 mm. The mice where then treated with drug for two months.

[5] = system: MDA-MB231 cells; experiment: Xenograft mouse model of human breast cancer lung metastasis; type: in vivo
Experimental: In-vivo metastatic studies using a Xenograph mouse model for human breast cancer with CBD. […] Lung metastases were generated in Nude mice after tail vein injection of 1×10^6 MDA-MB231-luc-D3H2LN cells. One day after the injection, the tumor bearing mice were injected i.p. once a day with vehicle or 0.5 mg/kg and 1 mg/kg CBD for three weeks. Visible lung metastases were then counted and measured by using a dissecting microscope.

[6] = system: 4T1 cells; experiment: Cell viability assay; type: cell-based, mouse; conditions: Mus musculus
Source text: as §1

[7] = system: ROS; experiment: ROS measurement in MDA-MB231 cells; type: cell-based, human; conditions: for generation of ROS: two days, approximate IC50 for CBD and THC
Source text: In culture, CBD-induced generation of ROS is a primary mechanism that leads to inhibition of cell growth, invasion, and survival across multiple cancers. The generation of ROS by CBD leads to the inhibition of Id-1 expression in breast cancer cells. […] The ability of CBD and the O-1663 CBD analog to stimulate the production of ROS was next compared. […] The involvement of CB2 receptors in the productions of ROS produced by CBD and the O-1663 CBD analog was next investigated.

[8] = system: p8 and LC3; experiment: p8 mRNA and LC3 (autophagy marker) in MDA-MB231 cells; type: cell-based, human; conditions: two days
[9] = system: U251 cells; experiment: MTT cell proliferation assay; conditions: Homo sapiens
[10] = MDA-MB-231, read-out: IC50, MDA-MB231

C=C(C)[C@@H]1CCC(C)=C[C@H]1c1c(O)cc(CCCCC)cc1O [CBD, cannabidiol]
reversal of inhibition of cell viability by CB1 receptor antagonist ([1]; 4T1 and MDA-MB231 cells): had no effect on reversing the activity of CBD
reversal of inhibition of cell viability by ROS scavenger α-TOC ([1]; 4T1 and MDA-MB231 cells): able to reverse the inhibitory effects of CBD
reversal of inhibition of cell viability by CB2 receptor antagonist SR14458 ([1]; 4T1 and MDA-MB231 cells): not significant
IC50 ([1]; MDA-MB-231, 72 h, read-out: IC50, antiproliferative, MDA-MB231): 1300 nM
IC50 [1, 10]: 2200 nM
IC50 ([1]; MDA-MB-231, read-out: IC50, MDA-MB231 cell viability): 1900 nM
Id-1 expression [2]: partial reduction of Id-1 expression
inhibition of Id-1 (structure activity relationship) ([2]; 1.5 μM, two days): greatest inhibition of Id-1
Id-1 protein expression ([2]; 0.1, 1.0, 1.5 μM, three days): concentration-dependent inhibition of Id-1 protein expression
concentration at which inhibitory effect on Id-1 expression occurred ([2]; three days): ≥ 100 nM
median increase in survival ([3]; 1 mg/kg daily from one day after injection): seven
total amount of metastatic foci [3]: reduction of the total amount of metastatic foci
effect of CB2 receptor antagonist SR14458 on anti-metastatic activity ([3]; 1 mg/kg): not affected by co-administration with SR14458
inhibition of total breast cancer metastasis ([3]; i.p. daily two weeks, 0.1 to 5 mg/kg): up to 75%
EC50, total breast cancer metastasis ([3]; i.p. daily two weeks, CI=0.2-0.5): 0.3 mg/kg
reduction in the number of metastases ([4]; 1 mg/kg and 10 mg/kg i.p. for seven days, from one week after injection): ≥ 70%
median increase in survival ([4]; 1 mg/kg starting on day seven): only a day
growth of established lung metastatic foci ([4]; 0.5, 1 or 10 mg/kg i.p. for seven days): dose-dependently reduced the growth of established lung metastatic foci
medium increase in survival [4]: 4 days
average median survival ([4]; treatment from one week after injection): 38 days
reduction in the number of metastases ([5]; MDA-MB231-luc-D3H2LN, 0.5 mg/kg and 1 mg/kg i.p. for three weeks): ≥ 70%
IC50 ([6]; 4T1, Table 5, read-out: IC50, 4T1 cell viability): 1800 nM
reversal of ROS in the presence of SR14458 [7]: small but significant reversal of ROS
generation of ROS [7]: robust up-regulation of ROS
up-regulation of p8 and LC3 [8]: did not produce up-regulation of p8 and LC3
IC50 ([9]; U-251, 72 h, read-out: CBD IC50, U251): 600 nM
IC50 ([9]; U-251, read-out: IC50, U251): 2900 nM

CCCCC(C)(C)c1cc(O)c(C2CCC(C3CCCCC3)CC2)c(O)c1 (centres unmarked) [Compound O-1663]
reversal of inhibition of cell viability by CB2 receptor antagonist SR14458 ([1]; 4T1 and MDA-MB231 cells): partially reverse the inhibitory effects
IC50 [1, 10]: 1200 nM
fold more active than CBD, MDA-MB231 cell viability ([1]; second screen): 2.2 fold
Id-1 protein expression compared with CBD ([2]; 1.0 μM, two days, MDA-MB231 and U251 cells): downregulated Id-1 protein expression to a far greater extent than CBD
Id-1 expression [2]: almost a complete down-regulation of Id-1 expression
animals with a metastatic foci >2 mm ([3]; 1 mg/kg): one of five animals
total amount of metastatic foci [3]: reduction of the total amount of metastatic foci
effect of CB2 receptor antagonist SR14458 on anti-metastatic activity ([3]; 1 mg/kg): partially reversed by the antagonist
fold more potent than CBD at inhibiting lung metastatic foci>2 mm ([3]; mouse, in vivo): 7.0 fold
fold more potent than CBD at inhibiting total metastasis ([3]; mouse, in vivo): 2.3 fold
reduction of percent metastasis compared with CBD ([4]; 0.5 and 1 mg/kg): significantly more potent than CBD in reducing percent metastasis
medium increase in survival [4]: 30 days
mice without visible lung metastatic foci ([4]; dissection microscope): 20%
mice still alive at end of study ([4]; treatment from day seven, 2 months): 50%
potency compared with CBD, human MDA-MB231 model of metastasis ([5]; i.p. daily six weeks): more potent than CBD
IC50 ([6]; 4T1, read-out: IC50, 4T1 cell viability): 830 nM
ROS reversed in the presence of SR14458 [7]: > 50%
generation of ROS [7]: significantly more potent and efficacious than CBD at generating ROS
up-regulation of p8 and LC3 [8]: able to up-regulate p8 and the marker of autophagy LC3
IC50 ([9]; U-251, read-out: IC50, U251): 530 nM
